Experimental data reported in patent publication US8440710B2, “HSL inhibitors useful in the treatment of diabetes” (Hoffmann-La Roche Inc., priority 2009, dated 2013).
pIC50: −log10 of the molar value.

molecular target: T1, human HSL (Homo sapiens, UniProt Q05469); assay: Human Hormone-Sensitive Lipase (HSL) enzyme inhibition assay (colorimetric, DMPT substrate); format: biochemical; conditions: human full length HSL-His6, 2,3-dimercapto-1-propanol tributyrate substrate, 37° C. 20 minutes, absorbance at 405 nm; read-out: HSL hum IC50
T1 construct: generate a full length human HSL ORF with a 3′-His6 tag; made in house; host or cells: High 5 insect cells (baculovirus, pFast-BAC)
T1 sequence (Q05469 1-1076): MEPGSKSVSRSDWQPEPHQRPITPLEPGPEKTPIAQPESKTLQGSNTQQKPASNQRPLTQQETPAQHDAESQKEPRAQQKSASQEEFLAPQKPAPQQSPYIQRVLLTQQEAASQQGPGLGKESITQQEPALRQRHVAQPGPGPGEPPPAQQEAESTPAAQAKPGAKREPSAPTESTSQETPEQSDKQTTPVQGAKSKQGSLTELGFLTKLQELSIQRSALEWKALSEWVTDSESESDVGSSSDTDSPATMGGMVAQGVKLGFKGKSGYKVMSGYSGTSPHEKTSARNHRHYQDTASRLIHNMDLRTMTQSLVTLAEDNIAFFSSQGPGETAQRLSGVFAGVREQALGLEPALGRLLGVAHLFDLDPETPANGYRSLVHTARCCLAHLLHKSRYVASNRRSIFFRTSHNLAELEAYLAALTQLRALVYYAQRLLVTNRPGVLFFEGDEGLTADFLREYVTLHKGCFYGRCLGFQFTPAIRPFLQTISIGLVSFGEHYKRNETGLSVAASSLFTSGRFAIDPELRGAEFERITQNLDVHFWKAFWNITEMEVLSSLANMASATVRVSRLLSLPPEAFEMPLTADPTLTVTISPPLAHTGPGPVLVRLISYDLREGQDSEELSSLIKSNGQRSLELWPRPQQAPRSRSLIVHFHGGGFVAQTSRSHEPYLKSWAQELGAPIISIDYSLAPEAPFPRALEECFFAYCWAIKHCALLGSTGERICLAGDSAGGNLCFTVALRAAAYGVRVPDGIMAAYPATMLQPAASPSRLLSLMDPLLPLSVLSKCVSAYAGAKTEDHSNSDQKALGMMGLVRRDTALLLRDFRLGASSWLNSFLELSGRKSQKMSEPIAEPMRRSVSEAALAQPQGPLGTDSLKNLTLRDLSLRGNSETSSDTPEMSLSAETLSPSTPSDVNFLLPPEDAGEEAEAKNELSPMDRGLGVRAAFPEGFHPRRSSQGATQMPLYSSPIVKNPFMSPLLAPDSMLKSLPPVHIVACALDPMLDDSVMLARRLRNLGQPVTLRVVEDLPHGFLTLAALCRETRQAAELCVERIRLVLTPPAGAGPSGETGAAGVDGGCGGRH
How it was run: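 Full-length human HSL with C-terminal His6, expressed in baculovirus-infected High 5 cells and Ni-NTA purified, was added (15 ug/ml stock) to 1.5 mM DMPT in 100 mM MOPS pH 7.2, 0.2 mg/ml fatty acid-free BSA containing compound. After 20 min at 37 °C, DTNB with SDS/Triton X-100 was added; A405 read after 15 min at RT.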

pIC50 | SMILES
6.39 | O=C1N(c2ccc(OCC(F)(F)F)cc2)CC[C@]12CC[C@](O)(COCC1CCC1)CC2 [Example 254, (5α,8β)-8-[(Cyclobutylmethoxy)methyl]-8-hydroxy-2-[4-(2,2,2-trifluoro-ethoxy)-phenyl]-2-aza-spiro[4.5]decan-1-one]
8.00 | O=C1N(c2ccc(OCC(F)(F)F)cc2)CC[C@]12CC[C@@](O)(COCC1CCC1)CC2 [Example 255, (5α,8α)-8-[(Cyclobutylmethoxy)methyl]-8-hydroxy-2-[4-(2,2,2-trifluoro-ethoxy)-phenyl]-2-aza-spiro[4.5]decan-1-one]
6.16 | O=C1N(c2ccc(OCC(F)(F)F)cc2)CC[C@]12CC[C@](O)(COCC1CC1)CC2 [Example 256, (5α,8β)-8-[(Cyclopropylmethoxy)methyl]-8-hydroxy-2-[4-(2,2,2-trifluoro-ethoxy)-phenyl]-2-aza-spiro[4.5]decan-1-one]
8.00 | O=C1N(c2ccc(OCC(F)(F)F)cc2)CC[C@]12CC[C@@](O)(COCC1CC1)CC2 [Example 257, (5α,8α)-8-[(Cyclopropylmethoxy)methyl]-8-hydroxy-2-[4-(2,2,2-trifluoro-ethoxy)-phenyl]-2-aza-spiro[4.5]decan-1-one]
7.15 | COC[C@]1(O)CC[C@]2(CCN(c3ccc(OCC(F)(F)F)cc3)C2=O)CC1 [Example 258, (5α,8α)-8-Hydroxy-8-methoxymethyl-2-[4-(2,2,2-trifluoro-ethoxy)-phenyl]-2-aza-spiro[4.5]decan-1-one]
7.10 | O=C1N(c2ccc(OCC(F)(F)F)cc2)CC[C@]12CC[C@@](O)(COCC1CCO1)CC2 (stereo partly drawn) [Example 259, (5α,8α)-8-Hydroxy-8-(oxetan-2-ylmethoxymethyl)-2-[4-(2,2,2-trifluoro-ethoxy)-phenyl]-2-aza-spiro[4.5]decan-1-one]
7.22 | CC1(COC[C@]2(O)CC[C@]3(CCN(c4ccc(OCC(F)(F)F)cc4)C3=O)CC2)COC1 [Example 260, (5α,8α)-8-Hydroxy-8-(3-methyl-oxetan-3-ylmethoxymethyl)-2-[4-(2,2,2-trifluoro-ethoxy)-phenyl]-2-aza-spiro[4.5]decan-1-one]
8.00 | CCSC[C@]1(O)CC[C@]2(CCN(c3ccc(OCC(F)(F)F)cc3)C2=O)CC1 [Example 261, (5α,8α)-8-Ethylsulfanylmethyl-8-hydroxy-2-[4-(2,2,2-trifluoro-ethoxy)-phenyl]-2-aza-spiro[4.5]decan-1-one]
7.70 | O=C1N(c2ccc(OCC(F)(F)F)cc2)CC[C@]12CC[C@@](O)(COCC1CCCC1)CC2 [Example 273, (5α,8α)-8-[(Cyclopentylmethoxy)methyl]-8-hydroxy-2-[4-(2,2,2-trifluoro-ethoxy)-phenyl]-2-aza-spiro[4.5]decan-1-one]
7.70 | CC(C)(C)COC[C@]1(O)CC[C@]2(CCN(c3ccc(OCC(F)(F)F)cc3)C2=O)CC1 [Example 274, (5α,8α)-8-(2,2-Dimethyl-propoxymethyl)-8-hydroxy-2-[4-(2,2,2-trifluoro-ethoxy)-phenyl]-2-aza-spiro[4.5]decan-1-one]
7.10 | CCS(=O)(=O)C[C@]1(O)CC[C@]2(CCN(c3ccc(OCC(F)(F)F)cc3)C2=O)CC1 [Example 275, (5α,8α)-8-Ethanesulfonylmethyl-8-hydroxy-2-[4-(2,2,2-trifluoro-ethoxy)-phenyl]-2-aza-spiro[4.5]decan-1-one]
8.00 | CC(C)OC[C@]1(O)CC[C@]2(CCN(c3ccc(OCC(F)(F)F)cc3)C2=O)CC1 [Example 276, (5α,8α)-8-Hydroxy-8-isopropoxymethyl-2-[4-(2,2,2-trifluoro-ethoxy)-phenyl]-2-aza-spiro[4.5]decan-1-one]
7.40 | O=C1N(c2ccc(OCC(F)(F)F)cc2)CC[C@]12CC[C@@](O)(COCCC(F)(F)F)CC2 [Example 277, (5α,8α)-8-Hydroxy-2-[4-(2,2,2-trifluoro-ethoxy)-phenyl]-8-(3,3,3-trifluoro-propoxymethyl)-2-aza-spiro[4.5]decan-1-one]
7.70 | O=C1N(c2ccc(OCC(F)(F)F)cc2)CC[C@]12CC[C@](O)(COc1ccccn1)CC2 [Example 278, (5α,8β)-8-Hydroxy-8-(pyridin-2-yloxymethyl)-2-[4-(2,2,2-trifluoro-ethoxy)-phenyl]-2-aza-spiro[4.5]decan-1-one]

More lines, now with the values behind:

SMILES | pIC50
O=C1N(c2ccc(OCC(F)(F)F)cc2)CC[C@]12CC[C@@](O)(COc1cccc(F)c1)CC2 [Example 262, (5α,8α)-8-(3-Fluoro-phenoxymethyl)-8-hydroxy-2-[4-(2,2,2-trifluoro-ethoxy)-phenyl]-2-aza-spiro[4.5]decan-1-one] | 7.15
O=C1N(c2ccc(OCC(F)(F)F)cc2)CC[C@]12CC[C@@](O)(COc1ccc(F)cc1)CC2 [Example 263, (5α,8α)-8-(4-Fluoro-phenoxymethyl)-8-hydroxy-2-[4-(2,2,2-trifluoro-ethoxy)-phenyl]-2-aza-spiro[4.5]decan-1-one] | 7.70
CCc1ccc(N2CC[C@]3(CC[C@](O)(COCC(F)F)CC3)C2=O)cc1 [Example 264, (5α,8β)-8-(2,2-Difluoro-ethoxymethyl)-2-(4-ethyl-phenyl)-8-hydroxy-2-aza-spiro[4.5]decan-1-one] | 6.70
CCc1ccc(N2CC[C@]3(CC[C@@](O)(COCC(F)F)CC3)C2=O)cc1 [Example 265, (5α,8α)-8-(2,2-Difluoro-ethoxymethyl)-2-(4-ethyl-phenyl)-8-hydroxy-2-aza-spiro[4.5]decan-1-one] | 7.40
CCCOC[C@]1(O)CC[C@@]2(CCN(c3ccc(OCC(F)(F)F)nc3)C2=O)CC1 [Example 266, (5α,8β)-8-Hydroxy-8-propoxymethyl-2-[6-(2,2,2-trifluoro-ethoxy)-pyridin-3-yl]-2-aza-spiro[4.5]decan-1-one] | 6.43
CCCOC[C@]1(O)CC[C@]2(CCN(c3ccc(OCC(F)(F)F)nc3)C2=O)CC1 [Example 267, (5α,8α)-8-Hydroxy-8-propoxymethyl-2-[6-(2,2,2-trifluoro-ethoxy)-pyridin-3-yl]-2-aza-spiro[4.5]decan-1-one] | 7.52
CCCOC[C@]1(O)CC[C@]2(CCN(c3ccc(O[C@@H](C)C(F)(F)F)nc3)C2=O)CC1 [Example 268, (5α,8α)-8-Hydroxy-8-propoxymethyl-2-[6-((S)-2,2,2-trifluoro-1-methyl-ethoxy)-pyridin-3-yl]-2-aza-spiro[4.5]decan-1-one] | 7.70
CCCOC[C@]1(O)CC[C@]2(CCN(c3ccc(O[C@@H](C)C(F)(F)F)cc3)C2=O)CC1 [Example 269, (5α,8α)-8-Hydroxy-8-propoxymethyl-2-[4-((S)-2,2,2-trifluoro-1-methyl-ethoxy)-phenyl]-2-aza-spiro[4.5]decan-1-one] | 8.00
CCCOC[C@]1(O)CC[C@]2(CCN(c3ccc(O[C@H](C)C(F)(F)F)cc3)C2=O)CC1 [Example 270, (5α,8α)-8-Hydroxy-8-propoxymethyl-2-[4-((R)-2,2,2-trifluoro-1-methyl-ethoxy)-phenyl]-2-aza-spiro[4.5]decan-1-one] | 8.00
CCOC[C@]1(O)CC[C@]2(CCN(c3ccc(C4CC4)cc3)C2=O)CC1 [Example 271, (5α,8α)-2-(4-Cyclopropyl-phenyl)-8-ethoxymethyl-8-hydroxy-2-aza-spiro[4.5]decan-1-one] | 7.52
CCCOC[C@]1(O)CC[C@]2(CCN(c3ccc(C4CC4)cc3)C2=O)CC1 [Example 272, (5α,8α)-2-(4-Cyclopropyl-phenyl)-8-hydroxy-8-propoxymethyl-2-aza-spiro[4.5]decan-1-one] | 7.70
